Experiment: mn = molality of the nth substance listed, in mol/kg
Details: 101 kPa, Liquid; for speed of sound: Linear variable-path acoustic interferometer

CCCCn1cc[n+](C)c1.[Br-] [1-butyl-3-methylimidazolium bromide] + CCO
Details	mass density, 298.15 K [kg/m3]	mass density, 303.15 K [kg/m3]	mass density, 308.15 K [kg/m3]	mass density, 313.15 K [kg/m3]	mass density, 318.15 K [kg/m3]	speed of sound, 298.15 K [m/s]	speed of sound, 303.15 K [m/s]	speed of sound, 308.15 K [m/s]	speed of sound, 313.15 K [m/s]	speed of sound, 318.15 K [m/s]
m1 = 0.0271	787.221	782.917	778.581	774.206	769.798	1145.2	1128.3	1111.6	1094.9	1078.3
m1 = 0.0587	789.649	785.356	781.029	776.665	772.267	1147.3	1130.5	1113.8	1097.1	1080.6
m1 = 0.0846	791.567	787.288	782.969	778.613	774.213	1148.6	1131.9	1115.3	1098.6	1082.1
m1 = 0.1257	794.595	790.319	786.01	781.663	777.288	1150.8	1134	1117.4	1101	1084.5
m1 = 0.1587	796.91	792.647	788.343	784.006	779.628	1152.7	1136.1	1119.4	1103	1086.5
m1 = 0.2261	801.67	797.404	793.117	788.795	784.413	1155.8	1139.7	1123.2	1106.8	1090.5
m1 = 0.3162	807.896	803.664	799.393	795.091	790.753	1160.7	1144.3	1128	1111.7	1095.4

CCCCn1cc[n+](C)c1.[Br-] [1-butyl-3-methylimidazolium bromide] + CO
Details	mass density, 298.15 K [kg/m3]	mass density, 303.15 K [kg/m3]	mass density, 308.15 K [kg/m3]	mass density, 313.15 K [kg/m3]	mass density, 318.15 K [kg/m3]	speed of sound, 298.15 K [m/s]	speed of sound, 303.15 K [m/s]	speed of sound, 308.15 K [m/s]	speed of sound, 313.15 K [m/s]	speed of sound, 318.15 K [m/s]
m1 = 0.0473	790.393	785.688	780.958	776.204	771.426	–	1090.5	1074.3	1058.2	1042.3
m1 = 0.0767	792.789	788.091	783.371	778.627	773.86	–	1092.6	1076.5	1060.5	1044.7
m1 = 0.1497	798.175	793.495	788.794	784.073	779.323	1114.1	1098	1081.9	1066	1050.2
m1 = 0.2612	806.303	801.654	796.988	792.294	787.582	1121.7	1105.7	1089.7	1073.9	1058.2
m1 = 0.3434	812.207	807.572	802.921	798.249	793.553	1127.1	1111.1	1095.2	1079.4	1063.8
m1 = 0.4912	822.389	817.794	813.177	808.542	803.883	1136.4	1120.6	1104.8	1089.2	1073.8
m1 = 0.7273	837.955	833.402	828.837	824.253	819.66	1151	1135.4	1119.9	1104.5	1089.2
m1 = 0.9756	852.578	848.25	843.727	839.188	834.634	1164.1	1148.7	1133.4	1118.2	1103.1
m1 = 1.405	876.422	871.97	867.512	863.046	858.563	1186.2	1171	1156	1141	1126.3
m1 = 2.446	924.879	920.559	916.245	911.924	907.596	1233.3	1218.8	1204.4	1190.1	1175.9
m1 = 3.896	976.589	972.412	968.238	964.059	959.889	1287.4	1273.5	1259.7	1246	1232.5

CCCCn1cc[n+](C)c1.[Br-] [1-butyl-3-methylimidazolium bromide] + O
Details	mass density, 298.15 K [kg/m3]	mass density, 303.15 K [kg/m3]	mass density, 308.15 K [kg/m3]	mass density, 313.15 K [kg/m3]	mass density, 318.15 K [kg/m3]	speed of sound, 298.15 K [m/s]	speed of sound, 303.15 K [m/s]	speed of sound, 308.15 K [m/s]	speed of sound, 313.15 K [m/s]	speed of sound, 318.15 K [m/s]
m1 = 0.0692	1000.44	999.001	997.35	995.472	993.421	1504	1515.9	1526	1534.6	1541.9
m1 = 0.1376	1003.7	1002.2	1000.49	998.581	996.491	1511.3	1522.7	1532.3	1540.4	1546.9
m1 = 0.2697	1009.85	1008.28	1006.54	1004.6	1002.47	1523.1	1533.3	1541.9	1549.1	1555
m1 = 0.6117	1024.93	1023.15	1021.17	1019.01	1016.68	1552.2	1561.7	1568.7	1573.8	1577
m1 = 1.28	1050.92	1048.78	1046.56	1044.14	1041.59	1600.3	1603.5	1605.6	1606.7	1606.9
m1 = 2.133	1078.26	1075.78	1073.14	1070.42	1067.58	1645.9	1644.9	1644.1	1640.6	1637.5
m1 = 3.115	1103.8	1100.98	1098.05	1095.04	1091.93	1682.7	1678.3	1673.3	1667.9	1662
m1 = 5.187	1143.52	1140.26	1136.94	1133.57	1130.13	1724.2	1716	1707.4	1698.6	1689.6
m1 = 7.792	1176.05	1172.57	1169.05	1165.49	1161.9	1741.2	1731.4	1721.3	1711	1700.5

Source: the NIST ThermoML archive (doi:10.1016/j.jct.2005.01.009)
